Like-named read-outs stand apart in the source and are kept apart here.
Key:
[1] = system: interior spruce somatic embryos; test: Ascorbic acid in nutripriming solution and germination media: germination and growth of interior spruce genotype 4-2809 somatic embryos; assay type: in vivo, Picea glauca (Moench) Voss x P. engelmannii Parry ex Engelm.
Protocol: Mature somatic embryos of interior spruce (Picea glauca (Moench) Voss x P. engelmannii Parry ex […].) genotype 4-2809 were desiccated with the HRHT treatment, and then nutriprimed in 3% w/v sucrose m24GMD solutions for 3 days as previously described. The nutripriming solutions were formulated with one of the following three ascorbic acid treatments; 0, 10 uM, 100 uM. The nutriprimed somatic embryos were then sown into germination boxes containing 150 ml vermiculite plus 120 ml of 3% w/v sucrose m24GMD liquid medium. […] Nutriprimed embryos from each ascorbic acid nutripriming treatment were then sown into triplicate boxes of each ascorbic acid-amended germination medium. After sowing, the germination boxes were sealed twice with ParafilmTM. Embryos were germinated and grown for two weeks under 50-70 μmol m^-2s^-1 photosynthetic photon flux of 16-hour photoperiod at an air temperature of 22° C. Then, the germinants were harvested, and measured.

[2] = system: interior spruce somatic embryos; assay type: in vivo, Picea glauca (Moench) Voss x P. engelmannii Parry ex Engelm.; conditions: for % with hyperhydricity: in vivo
Source text: The second study assessed the effects adding various osmotica to nutripriming solutions on subsequent germination and development performance. Mature somatic embryos of interior spruce (Picea glauca (Moench) Voss x P. engelmannii Parry ex Engelm.) genotype 23-2672 were desiccated with the HRHT treatment, and then divided into 10 groups of 160 somatic embryos per group. One group was not primed and served as the HRHT control treatment for this study. […] The nutripriming solutions and embryos were placed into 250-ml Kimax® baffled flasks. The nutripriming duration was 72 hrs at temperatures ranging between 20-23° C., and a 24-hr photoperiod of 30 μmol m^−2s^−1 photosynthetic photon flux.
At the completion of the nutripriming step, the nutriprimed embryos from each treatment were divided into 8 groups of 20 embryos and sown by hand onto vermiculite media in Sigma polycarbonate boxes. The liquid media in these germination boxes were either 3% w/v sucrose m24GMD or m24GMD without sucrose. The experiment design was a random complete block design for each media type. Each nutripriming treatment had 4 replicates of 20 embryos in each germination media type. The germination boxes were placed in a germination room and grown for two weeks under 50-70 μmol m^−2s^−1 photosynthetic photon flux of 16-hour photoperiod at an air temperature of 23° C. The germinants were then harvested and assessed for germination rates, hyperhydricity rates, shoot and root length. Germination was defined as germinants having a root longer than 2 mm, and elongated hypercotyl. Hyperhydricity was defined by the thickening of hypercotyl and watery appearance of the germinants, whether germinated or not germinated.

[3] = AA 0 μM in germination media, 10 μM in priming solution
[4] = AA 0 μM in germination media, 100 μM in priming solution
[5] = AA 1 μM in germination media, 0 μM in priming solution
[6] = AA 1 μM in germination media, 10 μM in priming solution
[7] = AA 1 μM in germination media, 100 μM in priming solution
[8] = AA 10 μM in germination media, 0 μM in priming solution
[9] = AA 10 μM in germination media, 10 μM in priming solution
[10] = AA 10 μM in germination media, 100 μM in priming solution
[11] = AA 100 μM in germination media, 0 μM in priming solution
[12] = AA 100 μM in germination media, 10 μM in priming solution
[13] = AA 100 μM in germination media, 100 μM in priming solution
[14] = AA 1000 μM in germination media, 0 μM in priming solution
[15] = AA 1000 μM in germination media, 10 μM in priming solution
[16] = AA 1000 μM in germination media, 100 μM in priming solution
[17] = germination media m24GMD (without sucrose), osmoticant levels as E220
[18] = germination media m24GMD plus 3% sucrose, osmoticant in m24GMD priming solution (w/v): 1% betaine, 1.65% fructose, glucose, mannitol, sorbitol, 3% lactose, maltose, sucrose, 10% PEG 4000, 72 hrs
[19] = germination media m24GMD plus 3% sucrose, osmoticant levels as E220

O=C1O[C@H]([C@@H](O)CO)C(O)=C1O [AA, Ascorbic acid] showed a Germination % [1, 3] of 100.0 ± 0.0%, a Root length [1, 3] of 2.59 ± 0.26 cm and a Rooting % [1, 3] of 86.7 ± 3.3%. For the same molecule, the Shoot length [1, 3] was 1.86 ± 0.10 cm, the Germination % [1, 4] was 100.0 ± 0.0% and the Root length [1, 4] was 3.56 ± 0.37 cm. The Rooting % [1, 4] was 96.7 ± 3.3%, the Shoot length [1, 4] was 2.07 ± 0.11 cm and the Germination % [1, 5] was 96.7 ± 3.3%. It also gave a Root length [1, 5] of 1.90 ± 0.23 cm, a Rooting % [1, 5] of 85.8 ± 3.0% and a Shoot length [1, 5] of 1.68 ± 0.10 cm. For the same molecule, the Germination % [1, 6] was 100.0 ± 0.0%, the Root length [1, 6] was 2.07 ± 0.22 cm and the Rooting % [1, 6] was 86.7 ± 8.8%. The Shoot length [1, 6] was 1.83 ± 0.11 cm, the Germination % [1, 7] was 100.0 ± 0.0% and the Rooting % [1, 7] was 90.0 ± 0.0%. For the same molecule, the Shoot length [1, 7] was 1.79 ± 0.09 cm, the Germination % [1, 8] was 97.5 ± 2.5% and the Root length [1, 8] was 2.46 ± 0.30 cm. It also gave a Rooting % [1, 8] of 87.5 ± 6.3%, a Shoot length [1, 8] of 1.84 ± 0.09 cm and a Germination % [1, 9] of 96.7 ± 3.3%. The Root length [1, 9] was 2.82 ± 0.36 cm, the Rooting % [1, 9] was 86.7 ± 3.3% and the Shoot length [1, 9] was 1.97 ± 0.19 cm. For the same molecule, the Germination % [1, 10] was 100.0 ± 0.0%, the Root length [1, 10] was 3.24 ± 0.32 cm and the Rooting % [1, 10] was 96.7 ± 3.3%. It also gave a Shoot length [1, 10] of 2.33 ± 0.11 cm, a Germination % [1, 11] of 93.3 ± 3.3% and a Root length [1, 11] of 2.50 ± 0.33 cm. For the same molecule, the Rooting % [1, 11] was 63.3 ± 8.8%, the Shoot length [1, 11] was 1.81 ± 0.09 cm and the Germination % [1, 12] was 100.0 ± 0.0%. The Root length [1, 12] was 3.18 ± 0.42 cm, the Rooting % [1, 12] was 78.2% and the Shoot length [1, 12] was 2.02 ± 0.11 cm. For the same molecule, the Germination % [1, 13] was 100.0 ± 0.0%, the Root length [1, 13] was 3.61 ± 0.39 cm and the Rooting % [1, 13] was 73.0%. It also gave a Shoot length [1, 13] of 2.12 ± 0.11 cm, a Germination % [1, 14] of 100.0 ± 0.0% and a Root length [1, 14] of 2.11 ± 0.25 cm. It also gave a Rooting % [1, 14] of 90.0 ± 0.0%, a Shoot length [1, 14] of 1.79 ± 0.14 cm and a Germination % [1, 15] of 100.0 ± 0.0%. It also gave a Root length [1, 15] of 2.55 ± 0.20 cm, a Rooting % [1, 15] of 95.0 ± 5.0% and a Shoot length [1, 15] of 2.00 ± 0.09 cm. It also gave a Germination % [1, 16] of 100.0 ± 0.0%, a Root length [1, 16] of 2.19 ± 0.26 cm and a Rooting % [1, 16] of 90.0 ± 5.8%. For the same molecule, the Shoot length [1, 16] was 1.75 ± 0.15 cm.

Work on C[N+](C)(C)CC(=O)O [betaine] yielded a Germination % [2, 17] of 45.0 ± 26.3%, a Root length [2, 17] of 0.4 ± 0.2 mm and a Shoot length [2, 17] of 11.2 ± 0.3 mm. It also gave a Germination % [2, 18] of 100%, a Root length [2, 19] of 12.2 ± 0.8 mm and a Shoot length [2, 19] of 14.2 ± 0.3 mm. The “% with hyperhydricity” value [2] was 76.3 ± 19.1%.

O=C(CO)[C@@H](O)[C@H](O)[C@H](O)CO [fructose] was tested, and the Germination % [2, 17] was 87.5 ± 7.8%, the Root length [2, 17] was 2.1 ± 0.1 mm and the Shoot length [2, 17] was 10.0 ± 0.3 mm. For the same molecule, the Germination % [2, 18] was 100%, the Root length [2, 19] was 12.2 ± 0.8 mm and the Shoot length [2, 19] was 13.5 ± 0.3 mm. For the same molecule, the “% with hyperhydricity” value [2] was 86.3 ± 9.4%.

OC[C@H]1O[C@@H](O[C@H]2[C@H](O)[C@@H](O)C(O)O[C@@H]2CO)[C@H](O)[C@@H](O)[C@H]1O (stereo partly shown) [lactose] showed a Germination % [2, 17] of 27.6 ± 24.3%, a Root length [2, 17] of 0.3 ± 0.1 mm and a Shoot length [2, 17] of 11.5 ± 0.2 mm. For the same molecule, the Germination % [2, 18] was 100%, the Root length [2, 19] was 12.4 ± 0.8 mm and the Shoot length [2, 19] was 15.5 ± 0.3 mm. For the same molecule, the “% with hyperhydricity” value [2] was 100%.

Source: patent publication US6689609B1, “Enhancing germination of plant somatic embryos by priming” (Cellfor Inc., priority 1999, dated 2004)
